“Also recorded” adds a separate entry of the source.
Legend:
rSH/1:AH/1-NA virus = tested on: rSH/1:AH/1-NA virus; design: species or system influenza A(H7N9) virus; settings: in vivo
rSH/1 virus = tested on: rSH/1 virus; design: species or system influenza A(H7N9) virus; settings: in vivo

Row | Compound | reduction in viral lung titres (rSH/1:AH/1-NA virus; po) [log] | effect on viral lung titres (rSH/1 virus; po) | viral lung titres compared with mice treated with vehicle only (rSH/1:AH/1-NA virus) | viral lung titres compared with mice treated with vehicle only (rSH/1 virus)
1 | CCOC(=O)C1=C[C@@H](OC(CC)CC)[C@H](NC(C)=O)[C@@H](N)C1 [Oseltamivir, oseltamivir] | 1 | no effect; also recorded: does not suppress H7N9 virus replication | – | –
2 | CC(=O)N[C@H]1[C@H]([C@H](O)[C@H](O)CO)OC(C(=O)O)=C[C@@H]1N=C(N)N [Zanamivir, zanamivir] | – | – | significantly reduced | significantly reduced

Source: PMC3863970 (Nature Communications, 2013)
